Values of other authors in US20040109886A1 (priority 2002, published 2004).

Columns and labels:
[1] = base

In the case of O=C(CCCN1CC=C(n2c(=O)[nH]c3ccccc32)CC1)c1ccc(F)cc1 [droperidol], the pKa [1] is listed as 7.64, the “solubility in acidic water” value (acidic water) is listed as “soluble” and the solubility in alcohol (alcohol) is listed as “high solubility”.
